The values below come from ChEMBL document CHEMBL1201862, “PubChem BioAssay data set” (2004).

Some test systems named below: Malme-3M; MDA-MB-231; K562; UACC-62; NCI-H23; HOP-92; M14; OVCAR-3; MOLT-4; SNB-19; SK-MEL-2; HCT-15; ACHN; HCC 2998; KM12; SN12C; CAKI-1; OVCAR-5; SW-620; A498.
Common to all, as to assay: NCI-60 cell line screen, 48 h

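96-well plates; 48 h exposure; 5 concentrations. Endpoints by linear interpolation between flanking doses. Not reached: highest tested concentration assigned. GI50 is the concentration that inhibits growth by half.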 Active and inactive are the calls of the source. Rule as the data show it: active = GI50 up to about 1.1 µM and inactive = higher. Some results are limits rather than exact numbers.

`O=C(CCCCCNC(=O)c1ccc(Cl)cc1)NO`: the GI50 with Malme-3M is 2.61 µM (inactive); in the experiment with MDA-MB-231, 3.61 µM (inactive); in the experiment with K562, 2.84 µM (inactive); in the experiment on UACC-62, 3.03 µM (inactive); in the experiment with NCI-H23, 5.97 µM (inactive); in the experiment with HOP-92, 2.81 µM (inactive). For the same compound, the GI50 is 5.71 µM (inactive) with M14; 2.55 µM (inactive) in the experiment on OVCAR-3; 1.88 µM (inactive) in the experiment on MOLT-4; 15 µM (inactive) in the experiment on SNB-19; 2.33 µM (inactive) in the experiment with SK-MEL-2; 15.3 µM in the experiment with HCT-15. The GI50 is 5.19 µM (inactive) in the experiment with ACHN; 4.5 µM (inactive) in the experiment with HCC 2998; 6.59 µM (inactive) in the experiment with KM12; 5.51 µM (inactive) in the experiment with SN12C; 4.05 µM (inactive) in the experiment on CAKI-1; 1.64 µM (inactive) with OVCAR-5. The GI50 with SW-620 was 2.82 µM (inactive).
`C=C1C(=O)O[C@H]2[C@@H](O)[C@H](C)CCC[C@]3(C)O[C@H]3CC[C@@]3(C)O[C@@H]3C[C@@H]12`: the GI50 with MDA-MB-231 was 4.08 µM (inactive); with K562, 1.14 µM (inactive); with UACC-62, 2.3 µM (inactive); with NCI-H23, 6.49 µM (inactive); in the experiment on M14, 6.11 µM (inactive); in the experiment on OVCAR-3, 4.31 µM (inactive). For the same compound, the GI50 in the experiment on MOLT-4 is 1.55 µM (inactive); in the experiment with SNB-19, 11.9 µM (inactive); with SK-MEL-2 it was 9.2 µM (inactive); in the experiment on HCT-15 it was 1.29 µM; in the experiment with HCC 2998, 4.93 µM (inactive); in the experiment on KM12, 7.94 µM (inactive). Further, the GI50 is 5.74 µM (inactive) in the experiment with SN12C; 7.33 µM (inactive) with A498; 6.22 µM (inactive) in the experiment on CAKI-1; 6.22 µM (inactive) in the experiment on OVCAR-5; 1.52 µM (inactive) in the experiment with SW-620.
With `O=C(c1ccc(Cl)cc1Cl)N(C(=O)N1CCCCC1)c1ccccc1`, the GI50 is 5.94 µM (inactive) in the experiment on Malme-3M; > 100 µM (inactive) in the experiment on MDA-MB-231; > 100 µM (inactive) with K562; > 100 µM (inactive) with UACC-62; > 100 µM (inactive) in the experiment with NCI-H23; > 100 µM (inactive) with M14. In addition, the GI50 with OVCAR-3 was 42.5 µM (inactive); in the experiment with MOLT-4, > 100 µM (inactive); in the experiment on SNB-19, > 100 µM (inactive); in the experiment on SK-MEL-2, > 100 µM (inactive); in the experiment on HCT-15, more than 100 µM; in the experiment on ACHN it was > 100 µM (inactive). Also, the GI50 with KM12 is > 100 µM (inactive); in the experiment with SN12C it was > 100 µM (inactive); in the experiment with A498, > 100 µM (inactive); in the experiment on CAKI-1, > 100 µM (inactive); in the experiment with OVCAR-5 it was 69.3 µM (inactive); in the experiment on SW-620 it was > 100 µM (inactive).
As for `CCOP(=O)(OCC)C1CC(O)CN1OC(=O)C(C)(C)C` (centres undefined), the GI50 in the experiment on Malme-3M, in the experiment on MDA-MB-231, in the experiment with K562, with UACC-62, in the experiment on NCI-H23 and in the experiment with M14 was > 100 µM (inactive) each time. The GI50 was > 100 µM (inactive) with OVCAR-3; > 100 µM (inactive) in the experiment on MOLT-4; > 100 µM (inactive) with SNB-19; > 100 µM (inactive) with SK-MEL-2; more than 100 µM in the experiment on HCT-15; > 100 µM (inactive) with ACHN. For the same compound, the GI50 with KM12, in the experiment on SN12C, in the experiment with A498, in the experiment with OVCAR-5 and with SW-620 was > 100 µM (inactive) each time.
Regarding `CC(C)CC(=O)NC(NC(C)C)(C(F)(F)F)C(F)(F)F`, the GI50 in the experiment on Malme-3M, with MDA-MB-231, in the experiment with K562, in the experiment on UACC-62, in the experiment with HOP-92 and in the experiment with MOLT-4 was > 100 µM (inactive) in each case. Also, the GI50 in the experiment with SNB-19 was > 100 µM (inactive); in the experiment on SK-MEL-2, > 100 µM (inactive); with HCT-15, more than 100 µM; in the experiment on ACHN, > 100 µM (inactive); in the experiment on HCC 2998 it was > 100 µM (inactive); in the experiment on KM12 it was > 100 µM (inactive). In addition, the GI50 in the experiment with SN12C, in the experiment on CAKI-1 and in the experiment with SW-620 was > 100 µM (inactive) throughout.
For `COc1ccc(/N=C2\C(=N/c3ccc(OC)cc3)N(c3ccccc3[N+](=O)[O-])C(=S)N2c2ccc(OC)cc2)cc1`, the GI50 is 7.78 µM (inactive) in the experiment with MDA-MB-231; 35.5 µM (inactive) in the experiment with K562; 78.9 µM (inactive) with UACC-62; > 100 µM (inactive) in the experiment with NCI-H23; > 100 µM (inactive) in the experiment on HOP-92; > 100 µM (inactive) in the experiment on M14. Moreover, the GI50 was > 100 µM (inactive) in the experiment on OVCAR-3; 21.8 µM (inactive) with MOLT-4; > 100 µM (inactive) in the experiment with SNB-19; > 100 µM (inactive) in the experiment on SK-MEL-2; more than 100 µM in the experiment with HCT-15; > 100 µM (inactive) with ACHN. Moreover, the GI50 with HCC 2998 was > 100 µM (inactive); with KM12 it was > 100 µM (inactive); with SN12C, > 100 µM (inactive); in the experiment with CAKI-1, 81.5 µM (inactive); with OVCAR-5, > 100 µM (inactive); in the experiment on SW-620, > 100 µM (inactive).
Take `COC(=O)NNC(c1ccc(Cl)cc1)c1ccc(Cl)cc1`: the GI50 was 20.6 µM (inactive) in the experiment on Malme-3M; 12.2 µM (inactive) in the experiment on MDA-MB-231; 22.2 µM (inactive) in the experiment on K562; 16 µM (inactive) in the experiment with UACC-62; 16.3 µM (inactive) in the experiment on NCI-H23; 15.7 µM (inactive) with M14. The GI50 in the experiment on OVCAR-3 is 15.2 µM (inactive); in the experiment with MOLT-4, 16.5 µM (inactive); in the experiment with SNB-19, 17.3 µM (inactive); in the experiment with SK-MEL-2, 12.4 µM (inactive); in the experiment on HCT-15, 15.2 µM; in the experiment on HCC 2998 it was 13.5 µM (inactive). Also, the GI50 with KM12 is 17 µM (inactive); in the experiment on SN12C, 19.5 µM (inactive); in the experiment on A498, 18.6 µM (inactive); in the experiment on CAKI-1, 16.1 µM (inactive); in the experiment on OVCAR-5, 15.7 µM (inactive); in the experiment with SW-620, 25.1 µM (inactive).
Regarding `CC(C)(C)NC1C2CCC(C)(C1O)C2(C)C` (centres undefined), the GI50 in the experiment on Malme-3M was > 100 µM (inactive); in the experiment on MDA-MB-231 it was > 100 µM (inactive); in the experiment on K562 it was > 100 µM (inactive); in the experiment on UACC-62, 3.67 µM (inactive); in the experiment with NCI-H23, > 100 µM (inactive); in the experiment with M14 it was > 100 µM (inactive). The GI50 in the experiment on OVCAR-3 is > 100 µM (inactive); in the experiment on MOLT-4, > 100 µM (inactive); with SNB-19, > 100 µM (inactive); in the experiment on SK-MEL-2, > 100 µM (inactive); in the experiment with HCT-15, more than 100 µM; in the experiment with ACHN, 8.63 µM (inactive). Further, the GI50 in the experiment with HCC 2998 was > 100 µM (inactive); in the experiment with KM12 it was > 100 µM (inactive); in the experiment with A498 it was 2.35 µM (inactive); in the experiment on CAKI-1, > 100 µM (inactive); with OVCAR-5, > 100 µM (inactive); with SW-620, > 100 µM (inactive).
`O=c1oc2ccc3ccccc3c2cc1-c1cn2ccsc2n1`: the GI50 with Malme-3M is 21.2 µM (inactive); in the experiment on MDA-MB-231, 14.1 µM (inactive); in the experiment on K562, 17.3 µM (inactive); in the experiment with UACC-62, 16.2 µM (inactive); with NCI-H23, 25.2 µM (inactive); in the experiment on HOP-92, 13 µM (inactive). Further, the GI50 was 24 µM (inactive) in the experiment on M14; 17.9 µM (inactive) in the experiment with OVCAR-3; 3.41 µM (inactive) in the experiment on MOLT-4; > 100 µM (inactive) in the experiment on SNB-19; > 100 µM (inactive) with SK-MEL-2; 16 µM in the experiment on HCT-15. Also, the GI50 in the experiment on ACHN is 16.1 µM (inactive); with HCC 2998, 16.7 µM (inactive); in the experiment with KM12 it was 20.6 µM (inactive); in the experiment on SN12C it was 28.4 µM (inactive); in the experiment with CAKI-1, 23.8 µM (inactive); in the experiment with OVCAR-5, 24.9 µM (inactive). The GI50 in the experiment on SW-620 is 16.8 µM (inactive).
In the case of `COc1cccc(/N=N/C(=NNC(=O)c2ccc(C)cc2)c2ccc(N(C)C)cc2)c1`, the GI50 in the experiment on MDA-MB-231 is > 100 µM (inactive); in the experiment on K562, 44 µM (inactive); with NCI-H23 it was > 100 µM (inactive); in the experiment on HOP-92 it was > 100 µM (inactive); in the experiment on M14, > 100 µM (inactive); in the experiment on OVCAR-3, 65.2 µM (inactive). Moreover, the GI50 was > 100 µM (inactive) with MOLT-4; > 100 µM (inactive) in the experiment with SNB-19; > 100 µM (inactive) in the experiment with SK-MEL-2; more than 100 µM in the experiment on HCT-15; > 100 µM (inactive) in the experiment on ACHN; > 100 µM (inactive) in the experiment on HCC 2998. The GI50 with KM12, with SN12C, in the experiment with CAKI-1, in the experiment with OVCAR-5 and with SW-620 was > 100 µM (inactive) in each case.
On to `O=[N+]([O-])/C(C(Cl)=C(Cl)Cl)=C1\NCCO1`, for which the GI50 was 45.8 µM (inactive) in the experiment with Malme-3M; > 100 µM (inactive) in the experiment with MDA-MB-231; > 100 µM (inactive) in the experiment on K562; 35.7 µM (inactive) in the experiment on UACC-62; > 100 µM (inactive) in the experiment on NCI-H23; > 100 µM (inactive) in the experiment with M14. For the same compound, the GI50 is 52.5 µM (inactive) with OVCAR-3; 69.5 µM (inactive) in the experiment on MOLT-4; > 100 µM (inactive) with SNB-19; > 100 µM (inactive) with SK-MEL-2; more than 100 µM with HCT-15; > 100 µM (inactive) in the experiment with ACHN. Moreover, the GI50 in the experiment on HCC 2998, in the experiment on KM12, in the experiment on SN12C, in the experiment on A498, in the experiment on CAKI-1 and in the experiment on OVCAR-5 was > 100 µM (inactive) in each case.
